Patent publication US11590108B2, “Pharmaceutical compositions for combination therapy” (Genfit, priority 2017, dated 2023)
Like-named read-outs stand apart in the source and are kept apart here.

Experiments:
[1] = cited from earlier work
TGFβ1-induced hHSC = assay: α-SMA ELISA in TGFβ1-activated human primary hepatic stellate cells (in vitro model of hepatic fibrogenesis); format: cell-based
Procedure: Serum-deprived HSC were preincubated for 1 hour with Elafibranor (A), Cenicriviroc (B), or Bezafibrate (PPAR pan α/γ/δ) before the activation with the profibrogenic cytokine TGFβ1 (1 ng/ml).
After 48 hours of incubation, the expression of α-SMA was measured by ELISA.
The obtained values were transformed into percentage inhibition over TGFβ1 control. Data are presented as mean (quadruplicates)±standard deviation (SD). Statistical analyses were performed by one-way ANOVA followed by Bonferroni post-hoc tests, using Sigma Plot 11.0 software. [*: p<0.05; **: p<0.01; ***: p<0.001 (comparison versus TGFβ1 1 ng/mL group)]. The curve fitting and the calculation of half maximal inhibitory concentration (IC50) were performed with XLFit software 5.3.1.3.
The human primary hepatic stellate cells (hHSC; Innoprot) were cultured in STeCM medium (ScienCell cat #5301) that was supplemented with 2% fetal bovine serum (FBS, ScienCell cat #0010), 1% penicillin/streptomycin (ScienCell cat #0503) and stellate cell growth supplement (SteCGS; ScienCell cat #5352). Cell-culture flasks were coated with Poly-L Lysine (Sigma cat #P4707) for a better adherence.
For these experiments, a checkerboard matrix was generated. […]
The level of α-SMA was measured using a Sandwich ELISA. […]

NASH with liver fibrosis = conditions: cited from earlier work
CDFF-fed mice = assay: Chronic CDFF diet fibrosing NASH mouse model (8 weeks); format: in vivo, C57Bl/6J mice; conditions: Elafibranor 3 mg/kg/day, CVC 10 mg/kg/day or both
Procedure: The preventive effects of Elafibranor alone, CVC alone and their combination were assessed in a fibrosing NASH model of mice fed a CDAA+2% cholesterol+30% Milk fat diet and High Fructose Corn Syrup 55 (55% fructose/45% glucose for a final concentration of 42 g/L) in drinking water (Mells et al J Nutr Biochem 2015). 5-6 weeks old male C57Bl/6J mice were fed a control (CSAA) diet (n=4), CDFF diet (n=12), or CDFF diet supplemented with Elafibranor 3 mg/kg/day, CVC 10 mg/kg/day or combined drugs (Elafibranor 3 mg/kg/day combined to CVC 10 mg/kg/day) (n=8 per group) for 8 weeks.
The body weight, the food and water intake were monitored twice per week. On the last day of treatment, plasma samples were obtained from retro-orbital blood sampling and mice were sacrificed after a 6 h-fasting period. The liver was rapidly excised for biochemical and histological analyses. All animal procedures were performed according to standard protocols and in accordance with the standard recommendations for the proper care and use of laboratory animals.
A technician blinded to the source of each liver specimen performed histological examinations. Virtual slides were generated using the Pannoramic 250 scanner from 3D Histech. For each animal, a score summarizing the main histological lesions of NASH was attributed according to the NASH Clinical Research Network (Kleiner 2005, Brunt 1999). Briefly, steatosis, lobular inflammation and hepatocyte ballooning were scored. The NAFLD Activity Score (NAS score) was established for each individual as the unweighted sum of the steatosis (0-3), lobular inflammation (0-3) and the ballooning (0-2) injury grading.
Alanine aminotransferase (ALT) and aspartate aminotransferase (AST) concentrations were measured in plasma using the Randox kit for Daytona automate (Randox cat #AL 3801 and AS 3804, respectively). Plasma cytokeratin 18-M30, a surrogate marker of apoptosis, was measured using the Mouse Cytokeratin 18-M30 ELISA Kit (CUSABIO cat #CSB-E14265m), according to the manufacturer's recommendations. […]
Quantitative PCR was then carried out using the CFX96 Touch™ Real-Time PCR Detection System (Biorad). […]
Expression levels were normalized using the expression of GAPDH gene as a housekeeping gene of reference in samples. […] Expression levels were determined using the standard curve equation for both the housekeeping gene and the target gene (taking into account the specific PCR efficiency of each target gene).
To achieve this aim, NASH was induced by feeding C57Bl/6J mice with a choline-deficient L-amino-acid-defined-diet supplemented with 2% cholesterol and 30% milk fat, and high fructose corn syrup in drinking water (CDFF diet). […] NASH development was evaluated by histology, liver function tests, and biochemical and molecular analyses.

[2] = CVC 150 mg orally once daily, one year

## CCCCOCCOc1ccc(-c2ccc3c(c2)C=C(C(=O)Nc2ccc([S@@+]([O-])Cc4cncn4CCC)cc2)CCCN3CC(C)C)cc1.CS(=O)(=O)O [CVC mesylate, (S)-8-[4-(2-Butoxyethoxy)phenyl]-1-isobutyl-N-[4-[[(1-propyl-1H-imidazol-5-yl)methyl]sulfinyl]phenyl]-1,2,3,4-tetrahydro-1-benzazocine-5-carboxamide monomethanesulfonoate]
[1]; 99.5% ethanol
  solubility: sparingly soluble
[1]; acetonitrile, 1-octanol, tetrahydrofuran
  solubility: slightly soluble
[1]; aqueous solution at pH 3
  solubility: sparingly soluble
[1]; aqueous solution from pH 1 to 2
  solubility: freely soluble
[1]; aqueous solution from pH 4 to 13 and in water
  solubility: practically insoluble
[1]; ethyl acetate and diethylether
  solubility: practically insoluble
[1]; glacial acetic acid, methanol, benzyl alcohol, dimethylsulfoxide, N,N-dimethylformamide
  solubility: freely soluble
[1]; pyridine and acetic anhydride
  solubility: soluble

## CCCCOCCOc1ccc(-c2ccc3c(c2)/C=C(/C(=O)Nc2ccc([S@@+]([O-])Cc4cncn4CCC)cc2)CCCN3CC(C)C)cc1 [CVC, (S,E)-8-(4-(2-Butoxyethoxy)phenyl)-1-(2-methylpropyl)-N-(4-(((1-propyl-1H-imidazol-5-yl)methyl)sulfinyl)phenyl)-1,2,3,4-tetrahydrobenzo[b]azocine-5-carboxamide]
TGFβ1-induced hHSC; 5 μM alone (FIG. 2C)
  antifibrotic activity (α-SMA): does not show any antifibrotic activity
TGFβ1-induced hHSC; hHSC, TGFβ1 1 ng/ml, 48 h, all doses (FIG. 1B, 1C)
  antifibrotic effect as single agent (α-SMA): did not show a significant effect
NASH with liver fibrosis; [2]
  fibrosis as compared to placebo: decrease of fibrosis in certain proportion of patients
  primary outcome (minimum 2-point improvement in NAS with at least 1-point reduction in lobular inflammation or hepatocellular ballooning): not met
NASH with liver fibrosis; recent phase 2B study
  efficacy on NASH-induced fibrosis: shown efficacy
CDFF-fed mice; 8 weeks (FIG. 4A)
  NAS score (disease activity): no effect
CDFF-fed mice; 8 weeks (FIG. 4B)
  plasma CK18 concentration: no effect
CDFF-fed mice; 8 weeks (FIG. 4C)
  plasma AST concentration: no effect
CDFF-fed mice; 8 weeks, qPCR (FIG. 5)
  hepatic expression of genes related to inflammation, tissue remodeling and fibrogenesis: no effect
